Test results published in ChEMBL document CHEMBL1909046, “DrugMatrix in vitro pharmacology data”.

Experiments:
[1] = target: Acetylcholinesterase (Homo sapiens, UniProt P22303); assay: DRUGMATRIX: Acetylcholinesterase enzyme inhibition (substrate: acetylthiocholine); assay type: cell-based, HEK293; conditions: hek293; Not Active = under 50% inhibition at 10 µM
[2] = DRUGMATRIX: Interleukin IL-1 radioligand binding (ligand: [125I] interleukin 1beta); assay type: cell membranes, Membrane; conditions: nih3t3; Not Active = under 50% inhibition at 10 µM
[3] = target: Prostaglandin G/H synthase 1 (Homo sapiens, UniProt P23219); assay: biochemical; assay type: tissue-based, Platelet;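 also: inhibition of COX-1 enzyme activity, with arachidonic acid supplied as substrate; in other assays of this panel Not Active means under 50% inhibition at 10 µM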
[4] = target: Estrogen receptor beta (Homo sapiens, UniProt Q92731); conditions: sf9; also: in other assays of this panel Not Active means under 50% inhibition at 10 µM
[5] = target: T1, Cholecystokinin receptor type A (Homo sapiens, UniProt P32238); assay type: cell membranes, Membrane; conditions: 1321-n1; also: in other assays of this panel Not Active means under 50% inhibition at 10 µM
T1 sequence (P32238 whole entry): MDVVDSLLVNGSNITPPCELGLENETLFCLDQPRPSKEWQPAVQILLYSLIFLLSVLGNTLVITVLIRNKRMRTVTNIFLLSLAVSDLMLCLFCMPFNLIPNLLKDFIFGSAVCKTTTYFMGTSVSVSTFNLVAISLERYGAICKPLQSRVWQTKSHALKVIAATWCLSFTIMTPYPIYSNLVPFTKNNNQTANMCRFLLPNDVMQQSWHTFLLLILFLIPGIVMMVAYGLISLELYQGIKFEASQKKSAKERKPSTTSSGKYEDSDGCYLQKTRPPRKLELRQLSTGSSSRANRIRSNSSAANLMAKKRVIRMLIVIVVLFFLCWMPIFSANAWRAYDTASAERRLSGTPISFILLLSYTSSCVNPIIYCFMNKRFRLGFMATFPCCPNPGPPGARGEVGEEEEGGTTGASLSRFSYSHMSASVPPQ

[6] = target: T2, D(4) dopamine receptor (Homo sapiens, UniProt P21917); assay: DRUGMATRIX: Dopamine D4.2 radioligand binding (ligand: [3H] Spiperone); assay type: cell membranes, CHO-K1, Membrane; conditions: cho-k1; Not Active = under 50% inhibition at 10 µM
T2 sequence (P21917 whole entry): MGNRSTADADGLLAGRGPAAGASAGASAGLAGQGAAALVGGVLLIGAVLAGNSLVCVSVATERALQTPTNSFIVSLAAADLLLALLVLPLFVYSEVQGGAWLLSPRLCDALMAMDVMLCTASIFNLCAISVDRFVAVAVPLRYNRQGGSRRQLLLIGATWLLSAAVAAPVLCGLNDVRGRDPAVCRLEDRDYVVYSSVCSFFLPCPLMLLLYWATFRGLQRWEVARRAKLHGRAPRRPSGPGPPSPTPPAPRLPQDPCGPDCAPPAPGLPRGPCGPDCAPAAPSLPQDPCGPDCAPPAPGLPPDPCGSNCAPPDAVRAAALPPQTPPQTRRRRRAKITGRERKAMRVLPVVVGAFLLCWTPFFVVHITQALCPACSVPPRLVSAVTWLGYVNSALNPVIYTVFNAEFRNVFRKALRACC

[7] = target: Sigma non-opioid intracellular receptor 1 (Homo sapiens, UniProt Q99720); assay: DRUGMATRIX: Sigma1 radioligand binding (ligand: [3H] Haloperidol); assay type: cell membranes, Jurkat, Membrane; conditions: Not Active = under 50% inhibition at 10 µM
[8] = target: T3, C-X-C chemokine receptor type 2 (Homo sapiens, UniProt P25025); assay type: cell membranes, Membrane; conditions: cho-k1; also: in other assays of this panel Not Active means under 50% inhibition at 10 µM
T3 sequence (P25025 whole entry): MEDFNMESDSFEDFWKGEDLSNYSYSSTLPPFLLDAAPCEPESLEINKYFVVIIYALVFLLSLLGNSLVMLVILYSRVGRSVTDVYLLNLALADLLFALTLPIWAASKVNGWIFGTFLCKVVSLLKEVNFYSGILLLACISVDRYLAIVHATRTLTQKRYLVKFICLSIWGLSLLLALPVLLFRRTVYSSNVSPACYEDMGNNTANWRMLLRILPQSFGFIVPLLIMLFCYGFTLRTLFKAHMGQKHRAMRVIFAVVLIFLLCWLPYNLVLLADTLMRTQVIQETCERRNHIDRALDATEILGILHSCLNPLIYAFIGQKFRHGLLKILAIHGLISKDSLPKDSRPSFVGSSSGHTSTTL

Sequence of Sigma non-opioid intracellular receptor 1 (Q99720 whole entry): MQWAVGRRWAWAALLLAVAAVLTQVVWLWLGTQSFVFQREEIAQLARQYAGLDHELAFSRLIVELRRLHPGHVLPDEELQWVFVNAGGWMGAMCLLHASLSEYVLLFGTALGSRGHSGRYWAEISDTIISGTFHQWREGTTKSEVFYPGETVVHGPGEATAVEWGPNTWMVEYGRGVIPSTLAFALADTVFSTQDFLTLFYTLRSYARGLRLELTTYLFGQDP
Sequence of Prostaglandin G/H synthase 1 (P23219 whole entry): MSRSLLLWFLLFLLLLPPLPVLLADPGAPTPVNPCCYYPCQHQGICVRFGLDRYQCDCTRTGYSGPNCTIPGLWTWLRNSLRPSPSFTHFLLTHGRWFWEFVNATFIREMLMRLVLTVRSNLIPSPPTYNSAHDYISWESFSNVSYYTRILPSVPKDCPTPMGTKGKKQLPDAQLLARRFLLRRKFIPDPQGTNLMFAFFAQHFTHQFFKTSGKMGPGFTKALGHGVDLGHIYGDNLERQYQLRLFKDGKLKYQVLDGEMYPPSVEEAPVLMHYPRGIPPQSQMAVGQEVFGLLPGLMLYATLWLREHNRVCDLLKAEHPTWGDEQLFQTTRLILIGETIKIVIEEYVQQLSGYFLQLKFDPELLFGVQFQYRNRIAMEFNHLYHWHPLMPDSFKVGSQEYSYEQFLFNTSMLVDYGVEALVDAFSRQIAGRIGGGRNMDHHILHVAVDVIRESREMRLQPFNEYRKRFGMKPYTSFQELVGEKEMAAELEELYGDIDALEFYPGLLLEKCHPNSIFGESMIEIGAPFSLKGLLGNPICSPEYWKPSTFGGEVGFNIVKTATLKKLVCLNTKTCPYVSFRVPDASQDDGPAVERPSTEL
Sequence of Estrogen receptor beta (Q92731 whole entry): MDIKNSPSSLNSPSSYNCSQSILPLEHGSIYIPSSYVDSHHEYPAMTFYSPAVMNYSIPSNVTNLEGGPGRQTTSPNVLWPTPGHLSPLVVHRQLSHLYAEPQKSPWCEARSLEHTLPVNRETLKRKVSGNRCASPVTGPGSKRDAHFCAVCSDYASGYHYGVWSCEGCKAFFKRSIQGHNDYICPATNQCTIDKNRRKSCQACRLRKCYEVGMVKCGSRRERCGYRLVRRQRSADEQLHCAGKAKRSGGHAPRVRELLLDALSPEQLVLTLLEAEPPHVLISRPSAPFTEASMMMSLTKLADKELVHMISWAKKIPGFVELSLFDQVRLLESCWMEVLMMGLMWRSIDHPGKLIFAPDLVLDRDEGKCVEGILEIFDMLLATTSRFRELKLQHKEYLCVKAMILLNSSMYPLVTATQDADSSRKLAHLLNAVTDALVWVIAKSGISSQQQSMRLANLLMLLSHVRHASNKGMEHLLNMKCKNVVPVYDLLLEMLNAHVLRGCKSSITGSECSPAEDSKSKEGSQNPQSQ
Sequence of Acetylcholinesterase (P22303 whole entry): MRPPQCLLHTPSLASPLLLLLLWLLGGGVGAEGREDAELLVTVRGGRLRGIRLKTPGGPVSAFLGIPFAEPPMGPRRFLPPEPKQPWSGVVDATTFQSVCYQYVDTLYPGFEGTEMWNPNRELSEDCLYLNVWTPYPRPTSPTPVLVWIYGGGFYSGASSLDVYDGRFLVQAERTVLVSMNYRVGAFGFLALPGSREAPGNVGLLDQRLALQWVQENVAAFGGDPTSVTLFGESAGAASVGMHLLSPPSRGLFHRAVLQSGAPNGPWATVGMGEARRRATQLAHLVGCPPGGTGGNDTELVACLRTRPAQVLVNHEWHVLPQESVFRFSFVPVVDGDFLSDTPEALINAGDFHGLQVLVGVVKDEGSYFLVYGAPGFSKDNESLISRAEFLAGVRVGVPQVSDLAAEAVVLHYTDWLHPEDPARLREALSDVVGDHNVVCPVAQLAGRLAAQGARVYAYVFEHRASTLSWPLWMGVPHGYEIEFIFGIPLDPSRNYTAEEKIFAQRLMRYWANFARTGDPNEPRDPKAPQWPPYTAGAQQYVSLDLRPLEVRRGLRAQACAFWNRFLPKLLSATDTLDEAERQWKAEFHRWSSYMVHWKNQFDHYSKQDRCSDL

Row | Molecule | IC50 [1] | IC50 [2] | Ki [2] | IC50 ([3]; platelet) | IC50 [4] | IC50 [5] | IC50 [6] | IC50 ([7]; jurkat) | IC50 [8] | Ki [1] | Ki ([3]; platelet) | Ki [4] | Ki [5] | Ki [6] | Ki ([7]; jurkat) | Ki [8] | IC50 ([7]; read-out: IC50) [µM] | Ki ([7]; read-out: Ki) [µM] | IC50 ([3]; read-out: IC50) [µM]
1 | COC1=C(OC)C(=O)C(CCCCCCCCCCO)=C(C)C1=O [IDEBENONE] | Not Active | Not Active | Not Active | Not Active | Not Active | Not Active | Not Active | Not Active | Not Active | – | – | – | – | – | – | – | – | – | –
2 | C[C@]12C=CC(=O)C=C1CC[C@@H]1[C@@H]2[C@@H](O)C[C@@]2(C)[C@H]1CC[C@]2(O)C(=O)CO [PREDNISOLONE] | Not Active | Not Active | Not Active | Not Active | Not Active | Not Active | Not Active | Not Active | Not Active | – | – | – | – | – | – | – | – | – | –
3 | O=C1O[C@H]([C@@H](O)CO)C(O)=C1O [ASCORBIC ACID] | Not Active | Not Active | Not Active | Not Active | Not Active | Not Active | Not Active | Not Active | Not Active | – | – | – | – | – | – | – | – | – | –
4 | COc1ccc(C2C(=O)c3ccccc3C2=O)cc1 [ANISINDIONE] | Not Active | Not Active | Not Active | Not Active | Not Active | Not Active | Not Active | Not Active | Not Active | – | – | – | – | – | – | – | – | – | –
5 | Brc1c(NC2=NCCN2)ccc2nccnc12 [BRIMONIDINE] | Not Active | Not Active | Not Active | Not Active | Not Active | Not Active | Not Active | Not Active | Not Active | – | – | – | – | – | – | – | – | – | –
6 | O=C(c1ccccc1C(F)(F)F)N1CCC(Cc2ccccc2)CC1 | Not Active | Not Active | Not Active | Not Active | Not Active | Not Active | Not Active | Not Active | Not Active | – | – | – | – | – | – | – | – | – | –
7 | GRAMICIDIN | Not Active | Not Active | Not Active | Not Active | Not Active | Not Active | Not Active | Not Active | Not Active | Not Active | Not Active | Not Active | Not Active | Not Active | Not Active | Not Active | – | – | –
8 | CCC(=O)O[C@]1(C(=O)CCl)[C@@H](C)C[C@H]2[C@@H]3CCC4=CC(=O)C=C[C@]4(C)[C@@]3(F)[C@@H](O)C[C@@]21C [CLOBETASOL PROPIONATE] | Not Active | Not Active | Not Active | Not Active | Not Active | Not Active | Not Active | Not Active | Not Active | – | – | – | – | – | – | – | – | – | –
9 | Cc1c(OCC(F)(F)F)ccnc1C[S+]([O-])c1nc2ccccc2[nH]1 (configuration not stated) [LANSOPRAZOLE] | Not Active | Not Active | Not Active | Not Active | Not Active | Not Active | Not Active | Not Active | Not Active | – | – | – | – | – | – | – | – | – | –
10 | CCCOc1ccc(C(=O)OCCN(CC)CC)cc1N [PROPARACAINE] | Not Active | Not Active | Not Active | Not Active | Not Active | Not Active | Not Active | – | Not Active | – | – | – | – | – | – | – | 0.238 | 0.1 | –
11 | CC(=O)[C@H]1[C@H](C#N)C[C@H]2[C@@H]3CC=C4C[C@@H](O)CC[C@]4(C)[C@H]3CC[C@@]21C [PREGNENOLONE CARBONITRILE] | Not Active | Not Active | Not Active | Not Active | Not Active | Not Active | Not Active | – | Not Active | – | – | – | – | – | – | – | 21.3 | 8.95 | –
12 | C[C@@H]1O[C@@H](O[C@@H]2C=C3CC[C@@H]4[C@H](CC[C@]5(C)[C@@H](c6ccc(=O)oc6)CC[C@]45O)[C@@]3(C)CC2)[C@H](O)[C@H](O)[C@H]1O [PROSCILLARIDIN] | Not Active | Not Active | Not Active | Not Active | Not Active | Not Active | Not Active | Not Active | Not Active | – | – | – | – | – | – | – | – | – | –
13 | CN(C)[C@@H]1C(O)=C(C(N)=O)C(=O)[C@@]2(O)C(O)=C3C(=O)c4c(O)ccc(Cl)c4[C@@](C)(O)[C@H]3C[C@@H]12 [CHLORTETRACYCLINE] | Not Active | Not Active | Not Active | Not Active | Not Active | Not Active | Not Active | Not Active | Not Active | – | – | – | – | – | – | – | – | – | –
14 | CC(C)c1cccc(C(C)C)c1O [PROPOFOL] | Not Active | Not Active | Not Active | – | Not Active | Not Active | Not Active | Not Active | Not Active | – | – | – | – | – | – | – | – | – | 3.83
15 | NYSTATIN | Not Active | Not Active | Not Active | Not Active | Not Active | Not Active | Not Active | Not Active | Not Active | Not Active | Not Active | Not Active | Not Active | Not Active | Not Active | Not Active | – | – | –
16 | Cc1cc2c(OCC(CNC(C)(C)C)OC(=O)c3ccccc3)cccc2[nH]1 (configuration not stated) [BOPINDOLOL] | Not Active | Not Active | Not Active | Not Active | Not Active | Not Active | Not Active | Not Active | Not Active | – | – | – | – | – | – | – | – | – | –
17 | CC(=O)Oc1ccc(C(c2ccc(OC(C)=O)cc2)c2ccccn2)cc1 [BISACODYL] | Not Active | Not Active | Not Active | Not Active | Not Active | Not Active | Not Active | Not Active | Not Active | – | – | – | – | – | – | – | – | – | –
18 | Nc1ccn([C@@H]2O[C@H](CO)[C@@H](O)C2(F)F)c(=O)n1 [GEMCITABINE] | Not Active | Not Active | Not Active | Not Active | Not Active | Not Active | Not Active | Not Active | Not Active | – | – | – | – | – | – | – | – | – | –
19 | CCC1(CCC(C)C)C(=O)NC(=O)NC1=O [AMOBARBITAL] | Not Active | Not Active | Not Active | Not Active | Not Active | Not Active | Not Active | Not Active | Not Active | – | – | – | – | – | – | – | – | – | –
20 | GENTAMICIN | Not Active | Not Active | Not Active | Not Active | Not Active | Not Active | Not Active | Not Active | Not Active | Not Active | Not Active | Not Active | Not Active | Not Active | Not Active | Not Active | – | – | –
21 | CCCNCC(O)COc1ccccc1C(=O)CCc1ccccc1 (configuration not stated) [PROPAFENONE] | Not Active | Not Active | Not Active | Not Active | Not Active | Not Active | Not Active | – | Not Active | – | – | – | – | – | – | – | 2.61 | 1.1 | –
22 | COc1ccc2[nH]cc(CCNC(C)=O)c2c1 [MELATONIN] | Not Active | Not Active | Not Active | Not Active | Not Active | Not Active | Not Active | Not Active | Not Active | – | – | – | – | – | – | – | – | – | –
